Columns and labels:
[1] = Half life in human liver microsomes at 1 uM by LC-MS/MS analysis
[2] = molecular target: T1, CYP11B (Rattus norvegicus, UniProt P15393+P30099); experiment: Inhibition of Sprague-Dawley rat adrenal mitochondrial CYP11B assessed as decrease in conversion of 11-deoxycortisol to cortisol at 100 nM incubated for 60 mins by ELISA relative to control; assay type: protein assay; conditions: adrenal mitochondria, probe 11-deoxycortisol
T1 sequence (P30099 whole entry): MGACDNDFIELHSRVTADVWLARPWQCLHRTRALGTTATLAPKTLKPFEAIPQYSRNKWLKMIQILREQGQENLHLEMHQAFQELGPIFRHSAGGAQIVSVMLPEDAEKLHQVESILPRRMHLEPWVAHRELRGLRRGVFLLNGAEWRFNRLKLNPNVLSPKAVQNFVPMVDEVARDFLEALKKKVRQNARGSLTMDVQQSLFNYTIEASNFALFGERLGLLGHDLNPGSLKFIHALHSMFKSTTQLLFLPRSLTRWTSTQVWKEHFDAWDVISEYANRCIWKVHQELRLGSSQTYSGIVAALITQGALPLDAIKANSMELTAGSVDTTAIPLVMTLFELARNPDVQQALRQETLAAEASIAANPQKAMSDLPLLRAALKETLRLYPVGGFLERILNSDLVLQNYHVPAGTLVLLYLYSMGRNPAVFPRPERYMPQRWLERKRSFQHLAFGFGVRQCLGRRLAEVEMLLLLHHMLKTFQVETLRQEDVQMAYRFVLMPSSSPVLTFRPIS
T1 sequence (P15393 whole entry): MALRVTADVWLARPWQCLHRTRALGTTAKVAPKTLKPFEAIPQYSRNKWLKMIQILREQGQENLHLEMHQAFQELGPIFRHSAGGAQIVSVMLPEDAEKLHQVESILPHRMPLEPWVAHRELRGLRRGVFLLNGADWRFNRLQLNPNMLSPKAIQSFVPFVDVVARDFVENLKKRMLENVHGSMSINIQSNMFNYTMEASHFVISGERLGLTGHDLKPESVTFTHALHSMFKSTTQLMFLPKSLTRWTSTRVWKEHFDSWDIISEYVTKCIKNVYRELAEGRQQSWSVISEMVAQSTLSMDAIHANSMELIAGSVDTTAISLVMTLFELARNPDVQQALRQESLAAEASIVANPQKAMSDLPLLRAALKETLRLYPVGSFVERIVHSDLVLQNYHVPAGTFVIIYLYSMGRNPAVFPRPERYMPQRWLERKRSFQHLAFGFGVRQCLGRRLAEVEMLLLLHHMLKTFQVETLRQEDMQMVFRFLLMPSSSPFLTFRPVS

[3] = Half life in rat liver microsomes at 1 uM by LC-MS/MS analysis
[4] = molecular target: T2, Steroid 17-alpha-hydroxylase/17,20 lyase (Homo sapiens, UniProt P05093); experiment: Inhibition of CYP17 in human testicular microsomes using 17alpha-hydroxypregnenolone as substrate assessed as decrease in DHEA levels at 10 nM after 90 mins by ELISA relative to control; set-up: species or system Testis; conditions: 1.5 h
T2 sequence (P05093 whole entry): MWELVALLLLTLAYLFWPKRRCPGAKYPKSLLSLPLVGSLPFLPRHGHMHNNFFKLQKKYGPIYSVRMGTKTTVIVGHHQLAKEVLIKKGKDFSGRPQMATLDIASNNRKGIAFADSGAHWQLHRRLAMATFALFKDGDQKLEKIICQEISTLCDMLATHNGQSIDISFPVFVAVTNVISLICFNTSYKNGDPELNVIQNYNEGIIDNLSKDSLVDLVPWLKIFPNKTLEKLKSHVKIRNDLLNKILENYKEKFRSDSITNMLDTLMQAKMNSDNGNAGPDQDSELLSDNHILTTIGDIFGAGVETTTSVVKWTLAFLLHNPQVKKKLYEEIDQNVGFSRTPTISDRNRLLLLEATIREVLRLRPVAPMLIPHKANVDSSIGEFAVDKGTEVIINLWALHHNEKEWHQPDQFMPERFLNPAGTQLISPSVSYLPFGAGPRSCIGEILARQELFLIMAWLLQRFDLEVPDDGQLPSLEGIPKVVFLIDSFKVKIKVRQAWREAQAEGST

[5] = molecular target: T2, Steroid 17-alpha-hydroxylase/17,20 lyase; experiment: Inhibition of CYP17 in human testicular microsomes using 17alpha-hydroxypregnenolone as substrate assessed as decrease in DHEA levels after 90 mins by ELISA; set-up: species or system Testis
[6] = molecular target: T3, CYP21 (steroid 21-hydroxylase) (Homo sapiens, UniProt P08686); experiment: Inhibition of human CYP21 transfected in HEK293 cells assessed as decrease in conversion of progesterone to 11-deoxycorticosterone preincubated for 5 hrs followed by progesterone addition measured after 20 hrs by ELISA; assay type: cell-based; set-up: concentration or dose not given beside the values; conditions: HEK293 cells transfected with human CYP21, probe progesterone
T3 sequence (P08686 whole entry): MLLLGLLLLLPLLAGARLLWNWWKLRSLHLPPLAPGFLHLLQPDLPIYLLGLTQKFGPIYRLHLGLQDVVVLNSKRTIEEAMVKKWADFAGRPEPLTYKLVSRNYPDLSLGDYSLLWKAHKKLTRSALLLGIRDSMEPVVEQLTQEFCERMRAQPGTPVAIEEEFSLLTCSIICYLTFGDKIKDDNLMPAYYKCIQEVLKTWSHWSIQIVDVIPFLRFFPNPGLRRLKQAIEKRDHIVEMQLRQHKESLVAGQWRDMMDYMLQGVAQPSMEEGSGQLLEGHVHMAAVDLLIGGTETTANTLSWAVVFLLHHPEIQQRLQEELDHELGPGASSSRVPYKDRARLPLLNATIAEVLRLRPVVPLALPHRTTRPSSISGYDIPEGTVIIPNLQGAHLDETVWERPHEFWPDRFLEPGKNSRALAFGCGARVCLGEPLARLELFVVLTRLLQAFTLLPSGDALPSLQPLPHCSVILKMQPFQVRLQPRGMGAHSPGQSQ

[7] = molecular target: T2, Steroid 17-alpha-hydroxylase/17,20 lyase; experiment: Inhibition of CYP17 in human testicular microsomes using 17alpha-hydroxypregnenolone as substrate assessed as decrease in DHEA levels at 1 nM after 90 mins by ELISA relative to control; set-up: species or system Testis
[8] = molecular target: T3, CYP21 (steroid 21-hydroxylase); experiment: Inhibition of human CYP21 transfected in HEK293 cells assessed as decrease in conversion of progesterone to 11-deoxycorticosterone at 100 nM preincubated for 5 hrs followed by progesterone addition measured after 20 hrs by ELISA relative to control; assay type: cell-based; conditions: HEK293 cells transfected with human CYP21, probe progesterone
[9] = molecular target: T2, Steroid 17-alpha-hydroxylase/17,20 lyase; experiment: Inhibition of CYP17 in human H295R cells assessed as decrease in testosterone levels after 24 hrs by ELISA; assay type: cell-based

Compound | half-life at 1 µM [1] | inhibition at 1 h, 0.1 µM [2] | half-life at 1 µM [3] | inhibition at 0.01 µM [4] | IC50 [5] | inhibition at 20 h [6] | IC50 [7] | inhibition at 20 h, 0.1 µM [8] | IC50 [9]
COc1cncc(C2=CC[C@H]3[C@@H]4CCC5=CC(=O)N(C)CC[C@]5(C)[C@H]4CC[C@]23C)c1 | 1 to 10 min | < 32% | 1 to 10 min | 50 to 80% | ≤ 11 nM | – | – | – | –
CN1CC[C@@]2(C)C(=CC1=O)CC[C@@H]1[C@@H]2CC[C@]2(C)C(n3ccnc3)=CC[C@@H]12 | 1 to 50 min | ≥ 50% | 10 to 60 min | ≥ 80% | ≤ 11 nM | – | – | – | –
C[C@]12CCCCC1C(=O)C[C@@H]1[C@@H]2CC[C@]2(C)C(n3ccnc3)=CC[C@@H]12 (stereo not given in full) | – | < 32% | – | ≥ 80% | ≤ 11 nM | – | – | – | –
COc1cncc(C2=CC[C@H]3[C@@H]4CC=C5N(C)C(=O)C[C@]5(C)[C@H]4CC[C@]23C)c1 | 1 to 50 min | < 32% | – | – | ≤ 11 nM | ≥ 50% | – | – | –
COC(=O)N1CCC[C@@]2(C)[C@@H](CC[C@@H]3[C@@H]2CC[C@]2(C)C(n4ccnc4)=CC[C@@H]32)C1 | – | ≥ 50% | – | – | – | 10 to 50% | > 100 nM | – | –
CCC(=O)N1CCC[C@@]2(C)C(CC[C@@H]3[C@@H]2CC[C@]2(C)C(c4cccnc4)=CC[C@@H]32)C1 (stereo not given in full) | – | ≥ 50% | – | – | ≤ 11 nM | 10 to 50% | – | – | –
CC1C[C@H]2C3=CC=C(c4cncc(N)c4)[C@@]3(C)CC[C@@H]2[C@@]2(C)CCC(=O)C=C12 (stereo not given in full) | – | – | – | – | ≤ 11 nM | – | – | < 30% | –
CN1C(=O)CCC[C@@]2(C)C1=CC[C@@H]1[C@@H]2CC[C@]2(C)C(c3cccnc3)=CC[C@@H]12 | 1 to 50 min | ≥ 50% | – | ≥ 80% | ≤ 11 nM | – | – | – | –
Cc1cncc(C2=CC[C@H]3[C@@H]4CC=C5N(C)C(=O)CCC[C@]5(C)[C@H]4CC[C@]23C)c1 | – | ≥ 50% | – | 50 to 80% | – | – | – | – | –
C[C@]12CC[C@H]3[C@@H](CCC4=C/C(=N/O)CC[C@@]43C)C1=CC=C2c1cccnc1 | 1 to 50 min | – | – | – | ≤ 11 nM | ≥ 50% | – | < 30% | –
C[C@]12CC[C@@H](NC(=O)C3CC3)CC1=CC[C@@H]1[C@@H]2CC[C@]2(C)C(n3ccnc3)=CC[C@@H]12 | 1 to 50 min | ≥ 50% | – | – | ≤ 11 nM | ≥ 50% | – | – | –
CC(=O)O[C@H]1CC[C@@]2(C)C(=CC[C@H]3C4=CC=C(c5cccnc5)[C@@]4(C)CC[C@@H]32)C1 | – | ≥ 50% | – | 1 to 50% | – | – | – | – | –
CCOc1cncc(C2=CC[C@H]3[C@@H]4CC=C5N(C)C(=O)C[C@]5(C)[C@H]4CC[C@]23C)c1 | – | ≥ 50% | – | – | – | 10 to 50% | – | – | –
C[C@]12CC[C@H](O)CC1=CC[C@@H]1[C@@H]2CC[C@]2(C)C(n3cncc3C#N)=CC[C@@H]12 | – | ≥ 50% | – | – | – | 10 to 50% | – | – | –
C[C@]12CC[C@H](O)CC1=CC[C@@H]1[C@@H]2CC[C@]2(C)C(c3cccnc3)=CC[C@@H]12 [ABIRATERONE] | 1 to 50 min | < 32% | – | ≥ 80% | ≤ 11 nM | ≥ 50% | – | – | ≤ 15 nM
CN1C(=O)CC[C@@]2(C)C1=CC[C@@H]1[C@@H]2CC[C@]2(C)C(n3ccnc3)=CC[C@@H]12 | – | ≥ 50% | – | 50 to 80% | – | – | – | – | –
CC(=O)N[C@@H]1CC[C@@]2(C)C(=CC[C@H]3C4=CC=C(n5ccnc5)[C@@]4(C)CC[C@@H]32)C1 | – | < 32% | – | – | – | 10 to 50% | – | – | –
CCCC(=O)N1CCC2CC[C@@H]3[C@H](CC[C@]4(C)C(n5ccnc5)=CC[C@@H]34)[C@@]2(C)CC1 (stereo not given in full) | – | < 32% | – | – | ≤ 11 nM | ≥ 50% | – | – | –
CN1C(=O)CC[C@@]2(C)C1=CC[C@@H]1[C@@H]2CC[C@]2(C)C(c3cncc(F)c3)=CC[C@@H]12 | – | ≥ 50% | – | – | – | 10 to 50% | – | – | –
COC(=O)N[C@@H]1CC[C@@]2(C)C(=CC[C@@H]3[C@@H]2CC[C@]2(C)C(n4ccnc4)=CC[C@@H]32)C1 | – | < 32% | – | – | ≤ 11 nM | ≥ 50% | – | – | –
COc1cncc(C2CC[C@H]3[C@@H]4CCC5=CC(=O)NCC[C@]5(C)[C@H]4CC[C@]23C)c1 (stereo not given in full) | 10 to 60 min | < 32% | 10 to 60 min | ≥ 80% | ≤ 11 nM | – | – | – | –
CN1CC=C2CC[C@@H]3[C@H](CC[C@]4(C)C(n5ccnc5)=CC[C@@H]34)[C@@]2(C)CC1 | – | < 32% | – | 1 to 50% | – | – | – | – | –
Cc1ccncc1C1=CCC2[C@@H]3CN(C)C4=CC(=O)CC[C@]4(C)[C@H]3CC[C@]12C (single isomer, unassigned) | – | ≥ 50% | – | – | – | 10 to 50% | – | – | ≤ 15 nM
CC(=O)N[C@@H]1CC[C@@]2(C)C(=CC[C@@H]3[C@@H]2CC[C@]2(C)C(n4ccnc4)=CC[C@@H]32)C1 | ≥ 50 min | ≥ 50% | – | – | ≤ 11 nM | ≥ 50% | – | – | ≤ 15 nM
COc1cncc(C2=CC[C@H]3[C@@H]4CC=C5N(C)C(=O)CCC[C@]5(C)[C@H]4CC[C@]23C)c1 | 1 to 50 min | ≥ 50% | – | ≥ 80% | – | – | – | – | –
CCC(=O)N1CCC2CC[C@@H]3[C@H](CC[C@]4(C)C(c5cccnc5)=CC[C@@H]34)[C@@]2(C)CC1 (stereo not given in full) | – | < 32% | – | – | ≤ 11 nM | 10 to 50% | – | – | –
CN1C(=O)C[C@@]2(C)C1=CC[C@@H]1[C@@H]2CC[C@]2(C)C(c3cccnc3)=CC[C@@H]12 | – | ≥ 50% | – | – | ≤ 11 nM | ≥ 50% | – | – | –
Cc1ccncc1C1=CC[C@H]2[C@@H]3CC[C@H]4CC(=O)NCC[C@]4(C)[C@H]3CC[C@]12C | – | < 32% | – | – | – | 10 to 50% | – | – | ≤ 15 nM

Source: ChEMBL document CHEMBL3882724 (2013)
